# Data published in ChEMBL document CHEMBL3244164, “Synthesis and analgesic activity of 1,3-dihydro-3-(substituted phenyl)imidazo[4,5-b]pyridin-2-ones and 3-(substituted phenyl)-1,2,3-triazolo[4,5-b]pyridines” (J Med Chem, 1978).
# Active and inactive are the calls of the source.
# Tests used:
# Rattus norvegicus [1] = assay: Analgesic activity in Sprague-Dawley rat assessed as increase in mean reaction time at 20 mg/kg, po after 3 hrs relative to control; format: functional
# Rattus norvegicus [2] = assay: Analgesic activity in Sprague-Dawley rat assessed as increase in mean reaction time at 20 mg/kg, po after 2 hrs relative to control; format: functional
# Rattus norvegicus [3] = assay: Analgesic activity in Sprague-Dawley rat assessed as increase in mean reaction time at 5 mg/kg, po after 5 hrs relative to control; format: functional
# Rattus norvegicus [4] = assay: Analgesic activity in Sprague-Dawley rat assessed as increase in mean reaction time at 10 mg/kg, po after 1 hr relative to control; format: functional
# Rattus norvegicus [5] = assay: Analgesic activity in naloxone treated Sprague-Dawley rat hyperesthesia model normal foot assessed as mean pain reaction threshold at 5 mg/kg, po after 1 hr; format: functional
# Rattus norvegicus [6] = assay: Analgesic activity in Sprague-Dawley rat assessed as increase in mean reaction time at 5 mg/kg, po after 2 hrs relative to control; format: functional
# Rattus norvegicus [7] = assay: Antiarthritic activity in Lewis rat assessed as inhibition of adjuvant-induced paw swelling at 50 mg/kg, po qd for 13 days measured on day 14; format: functional
# Rattus norvegicus [8] = assay: Analgesic activity in Sprague-Dawley rat hyperesthesia model inflamed foot assessed as mean pain reaction threshold at 20 mg/kg, po after 1 hr; format: functional
# Rattus norvegicus [9] = assay: Analgesic activity in naloxone treated Sprague-Dawley rat hyperesthesia model normal foot assessed as mean pain reaction threshold at 10 mg/kg, po after 1 hr; format: functional
# Rattus norvegicus [10] = assay: Analgesic activity in Sprague-Dawley rat hyperesthesia model inflamed foot assessed as mean pain reaction threshold at 10 mg/kg, po after 1 hr; format: functional
# Rattus norvegicus [11] = assay: Analgesic activity in Sprague-Dawley rat hyperesthesia model inflamed foot assessed as mean pain reaction threshold at 5 mg/kg, po after 1 hr; format: functional
# Rattus norvegicus [12] = assay: Analgesic activity in Sprague-Dawley rat assessed as increase in mean reaction time at 5 mg/kg, po after 3 hrs relative to control; format: functional
# Rattus norvegicus [13] = assay: Analgesic activity in Sprague-Dawley rat assessed as increase in mean reaction time at 20 mg/kg, po after 4 hrs relative to control; format: functional
# Rattus norvegicus [14] = assay: Analgesic activity in naloxone treated Sprague-Dawley rat hyperesthesia model inflamed foot assessed as mean pain reaction threshold at 10 mg/kg, po after 1 hr; format: functional
# Rattus norvegicus [15] = assay: Analgesic activity in Sprague-Dawley rat assessed as increase in mean reaction time at 5 mg/kg, po after 4 hrs relative to control; format: functional
# Rattus norvegicus [16] = assay: Analgesic activity in Sprague-Dawley rat hyperesthesia model normal foot assessed as mean pain reaction threshold at 20 mg/kg, po after 1 hr; format: functional
# Rattus norvegicus [17] = assay: Analgesic activity in Sprague-Dawley rat assessed as increase in mean reaction time at 10 mg/kg, po after 3 hrs relative to control; format: functional
# Rattus norvegicus [18] = assay: Analgesic activity in Sprague-Dawley rat hyperesthesia model normal foot assessed as mean pain reaction threshold at 10 mg/kg, po after 1 hr; format: functional
# Rattus norvegicus [19] = assay: Analgesic activity in Sprague-Dawley rat assessed as increase in mean reaction time at 10 mg/kg, po after 4 hrs relative to control; format: functional
# Rattus norvegicus [20] = assay: Analgesic activity in Sprague-Dawley rat hyperesthesia model normal foot assessed as mean pain reaction threshold at 5 mg/kg, po after 1 hr; format: functional
# Rattus norvegicus [21] = assay: Analgesic activity in Sprague-Dawley rat brewer's yeast treated foot assessed as response threshold at 8 mg/kg, po; format: functional
# Rattus norvegicus [22] = assay: Analgesic activity in Sprague-Dawley rat assessed as increase in mean reaction time at 10 mg/kg, po after 5 hrs relative to control; format: functional
# Rattus norvegicus [23] = assay: Analgesic activity in naloxone treated Sprague-Dawley rat hyperesthesia model normal foot assessed as mean pain reaction threshold at 20 mg/kg, po after 1 hr; format: functional
# Rattus norvegicus [24] = assay: Analgesic activity in naloxone treated Sprague-Dawley rat hyperesthesia model inflamed foot assessed as mean pain reaction threshold at 5 mg/kg, po after 1 hr; format: functional
# Rattus norvegicus [25] = assay: Analgesic activity in Sprague-Dawley rat assessed as increase in mean reaction time at 5 mg/kg, po after 1 hr relative to control; format: functional
# Rattus norvegicus [26] = assay: Antiinflammatory activity in Sprague-Dawley rat assessed as inhibition of carrageenan-induced paw edema at 30 mg/kg, po; format: functional
# Rattus norvegicus [27] = assay: Analgesic activity in Sprague-Dawley rat assessed as increase in mean reaction time at 10 mg/kg, po after 2 hrs relative to control; format: functional
# Rattus norvegicus [28] = assay: Analgesic activity in Sprague-Dawley rat normal foot assessed as response threshold at 8 to 16 mg/kg, po; format: functional; conditions: dose mg/kg 8-16
# Rattus norvegicus [29] = assay: Analgesic activity in Sprague-Dawley rat assessed as increase in mean reaction time at 20 mg/kg, po after 5 hrs relative to control; format: functional
# Rattus norvegicus [30] = assay: Analgesic activity in naloxone treated Sprague-Dawley rat hyperesthesia model inflamed foot assessed as mean pain reaction threshold at 20 mg/kg, po after 1 hr; format: functional
# Rattus norvegicus [31] = assay: Analgesic activity in Sprague-Dawley rat assessed as increase in mean reaction time at 20 mg/kg, po after 1 hr relative to control; format: functional
# Rattus norvegicus [32] = assay: Analgesic activity in Sprague-Dawley rat assessed as increase in mean reaction time at 90 mg/kg, po after 1 hr relative to control; format: functional
# Mus musculus [33] = assay: Analgesic activity in naloxone treated mouse assessed as withdrawal latency at 12.5 to 75 mg/kg, po; format: functional, organism-based
# Rattus norvegicus [34] = assay: Analgesic activity in Sprague-Dawley rat normal foot assessed as response threshold at 32 mg/kg, po; format: functional
# Rattus norvegicus [35] = assay: Analgesic activity in Sprague-Dawley rat assessed as increase in mean reaction time at 90 mg/kg, po after 2 hrs relative to control; format: functional
# Rattus norvegicus [36] = assay: Analgesic activity in Sprague-Dawley rat assessed as increase in mean reaction time at 120 mg/kg, po after 3 hrs relative to control; format: functional
# Rattus norvegicus [37] = assay: Analgesic activity in Sprague-Dawley rat assessed as increase in mean reaction time at 30 mg/kg, po after 1 hr relative to control; format: functional
# Mus musculus [38] = assay: Analgesic activity in mouse assessed as withdrawal latency at 12.5 to 75 mg/kg, po by Haffner tail clamp method; format: functional, organism-based
# Rattus norvegicus [39] = assay: Analgesic activity in Sprague-Dawley rat assessed as increase in mean reaction time at 90 mg/kg, po after 5 hrs relative to control; format: functional
# Rattus norvegicus [40] = assay: Analgesic activity in Sprague-Dawley rat assessed as increase in mean reaction time at 120 mg/kg, po after 5 hrs relative to control; format: functional
# Rattus norvegicus [41] = assay: Toxicity in Sprague-Dawley rat assessed as sedation at 90 mg/kg, po after 5 hrs relative to control; format: organism-based; design: dose 90 mg/kg, route oral; conditions: in vivo
# Rattus norvegicus [42] = assay: Analgesic activity in Sprague-Dawley rat assessed as increase in mean reaction time at 30 mg/kg, po after 2 hrs relative to control; format: functional
# Rattus norvegicus [43] = assay: Analgesic activity in Sprague-Dawley rat assessed as increase in mean reaction time at 60 mg/kg, po after 4 hrs relative to control; format: functional
# Rattus norvegicus [44] = assay: Analgesic activity in Sprague-Dawley rat assessed as increase in mean reaction time at 120 mg/kg, po after 4 hrs relative to control; format: functional
# Rattus norvegicus [45] = assay: Analgesic activity in Sprague-Dawley rat assessed as increase in mean reaction time at 30 mg/kg, po after 3 hrs relative to control; format: functional
# Rattus norvegicus [46] = assay: Analgesic activity in Sprague-Dawley rat assessed as increase in mean reaction time at 120 mg/kg, po after 2 hrs relative to control; format: functional
# Rattus norvegicus [47] = assay: Toxicity in Sprague-Dawley rat assessed as sedation at 90 mg/kg, po after 1 hr relative to control; format: organism-based; design: dose 90 mg/kg, route oral; conditions: in vivo
# Rattus norvegicus [48] = assay: Toxicity in Sprague-Dawley rat assessed as sedation at 90 mg/kg, po after 3 hrs relative to control; format: organism-based; design: dose 90 mg/kg, route oral; conditions: in vivo
# Rattus norvegicus [49] = assay: Analgesic activity in Sprague-Dawley rat brewer's yeast treated foot assessed as response threshold at 16 to 32 mg/kg, po; format: functional; conditions: dose mg/kg 16-32
# Rattus norvegicus [50] = assay: Analgesic activity in Sprague-Dawley rat assessed as increase in mean reaction time at 30 mg/kg, po after 5 hrs relative to control; format: functional
# Rattus norvegicus [51] = assay: Toxicity in Sprague-Dawley rat assessed as sedation at 90 mg/kg, po after 2 hrs relative to control; format: organism-based; design: dose 90 mg/kg, route oral; conditions: in vivo
# Rattus norvegicus [52] = assay: Analgesic activity in Sprague-Dawley rat assessed as increase in mean reaction time at 30 mg/kg, po after 4 hrs relative to control; format: functional
# Rattus norvegicus [53] = assay: Analgesic activity in Sprague-Dawley rat assessed as increase in mean reaction time at 60 mg/kg, po after 5 hrs relative to control; format: functional
# Rattus norvegicus [54] = assay: Analgesic activity in Sprague-Dawley rat assessed as increase in mean reaction time at 60 mg/kg, po after 2 hrs relative to control; format: functional
# Rattus norvegicus [55] = assay: Analgesic activity in Sprague-Dawley rat assessed as increase in mean reaction time at 90 mg/kg, po after 4 hrs relative to control; format: functional
# Rattus norvegicus [56] = assay: Analgesic activity in Sprague-Dawley rat assessed as increase in mean reaction time at 60 mg/kg, po after 3 hrs relative to control; format: functional
# Rattus norvegicus [57] = assay: Analgesic activity in Sprague-Dawley rat assessed as increase in mean reaction time at 60 mg/kg, po after 1 hr relative to control; format: functional
# Rattus norvegicus [58] = assay: Analgesic activity in Sprague-Dawley rat assessed as increase in mean reaction time at 90 mg/kg, po after 3 hrs relative to control; format: functional
# Rattus norvegicus [59] = assay: Toxicity in Sprague-Dawley rat assessed as sedation at 90 mg/kg, po after 4 hrs relative to control; format: organism-based; design: dose 90 mg/kg, route oral; conditions: in vivo
# Rattus norvegicus [60] = assay: Analgesic activity in Sprague-Dawley rat assessed as increase in mean reaction time at 120 mg/kg, po after 1 hr relative to control; format: functional
smiles,measurement,setting,value
C=CCn1c(=O)n(-c2ccc3c(c2)OCO3)c2ncccc21,Time,Rattus norvegicus [1],24.4 s
same,Time,Rattus norvegicus [2],21.7 s
same,Time,Rattus norvegicus [3],0 s
same,Time,Rattus norvegicus [4],8.8 s
same,Activity,Rattus norvegicus [5],38.4 mmHg
same,Time,Rattus norvegicus [6],3.8 s
same,inhibition in vivo at 50 mg/kg,Rattus norvegicus [7],78.2%
same,Activity,Rattus norvegicus [8],74.4 mmHg
same,Activity,Rattus norvegicus [9],71.1 mmHg
same,Activity,Rattus norvegicus [10],44.4 mmHg
same,Activity,Rattus norvegicus [11],28.8 mmHg
same,Time,Rattus norvegicus [12],5.3 s
same,Time,Rattus norvegicus [13],28.1 s
same,Activity,Rattus norvegicus [14],47.8 mmHg
same,Time,Rattus norvegicus [15],3.9 s
same,Activity,Rattus norvegicus [16],88.5 mmHg
same,Time,Rattus norvegicus [17],11.6 s
same,Activity,Rattus norvegicus [18],52.3 mmHg
same,Time,Rattus norvegicus [19],7.1 s
same,Activity,Rattus norvegicus [20],40.5 mmHg
same,Activity,Rattus norvegicus [21],>34 mm
same,Time,Rattus norvegicus [22],6.2 s
same,Activity,Rattus norvegicus [23],79.3 mmHg
same,Activity,Rattus norvegicus [24],33.4 mmHg
same,Time,Rattus norvegicus [25],0.1 s
same,inhibition in vivo at 30 mg/kg,Rattus norvegicus [26],42%
same,Time,Rattus norvegicus [27],7.3 s
same,Activity,Rattus norvegicus [28],>50 mm
same,Time,Rattus norvegicus [29],24.5 s
same,Activity,Rattus norvegicus [30],66.6 mmHg
same,Time,Rattus norvegicus [31],13.5 s
CCC(=O)O[C@](Cc1ccccc1)(c1ccccc1)[C@H](C)CN(C)C [PROPOXYPHENE],Time,Rattus norvegicus [32],40.6 s
same,Activity,Mus musculus [33],inactive
same,Activity,Rattus norvegicus [34],40 mm
same,Time,Rattus norvegicus [35],42 s
same,Time,Rattus norvegicus [36],24.5 s
same,Time,Rattus norvegicus [37],-3.2 s
same,Activity,Mus musculus [38],Active
same,Time,Rattus norvegicus [39],10.5 s
same,Time,Rattus norvegicus [40],3.6 s
same,Activity,Rattus norvegicus [41],Toxic
same,Time,Rattus norvegicus [42],-2.6 s
same,Time,Rattus norvegicus [43],-0.8 s
same,inhibition in vivo at 50 mg/kg,Rattus norvegicus [7],56.2%
same,Time,Rattus norvegicus [44],15 s
same,Time,Rattus norvegicus [45],-4.4 s
same,Time,Rattus norvegicus [46],30 s
same,Activity,Rattus norvegicus [47],Toxic
same,Activity,Rattus norvegicus [48],Toxic
same,Activity,Rattus norvegicus [49],>25 mm
same,Time,Rattus norvegicus [50],0.1 s
same,Activity,Rattus norvegicus [51],Toxic
same,Time,Rattus norvegicus [52],-0.8 s
same,Time,Rattus norvegicus [53],-1.1 s
same,Time,Rattus norvegicus [54],-0.8 s
same,Time,Rattus norvegicus [55],36.4 s
same,Time,Rattus norvegicus [56],-2.4 s
same,inhibition in vivo at 30 mg/kg,Rattus norvegicus [26],23%
same,Time,Rattus norvegicus [57],-3 s
same,Time,Rattus norvegicus [58],40.7 s
same,Activity,Rattus norvegicus [59],Toxic
same,Time,Rattus norvegicus [60],41.9 s
